According to the pKa sets of Baltruschat and Czodrowski (2020):

Settings: acidic group
In the case of `NNC(=O)c1ccccc1`, the pKa is reported as 12.4. `O=C([O-])C1(C(=O)O)CCCC1` gave a pKa of 6.08. Work on `NS(=O)(=O)c1ccc(Cl)cc1` yielded a pKa of 9.5. Work on `CNc1ncnc2[nH]ncc12` yielded a pKa of 10.6. Work on `O=Cc1cc(Br)cc([N+](=O)[O-])c1O` yielded a pKa of 4.46. For `CN1C(=O)N/C(=C\c2ccccc2)C1=O`, the pKa was 9.6. `S=C(Nc1ccccc1)c1ccccc1` showed a pKa of 10.9. `Oc1cnc2ccccc2[nH+]1` showed a pKa of -1.37. With `CN(O)C(=O)C(C)(C)C` the pKa was 9.94. `Cc1[nH]ccc1C(=O)O` showed a pKa of 5.8. Compound `Cc1nc2c(=O)[nH]c(=O)[nH]c2n1C` has a pKa of 6.2. Compound `N#CC(C#N)=C(N)C(C#N)C#N` has a pKa of 2.58. `O=C(O)CSCCc1ccccc1` gave a pKa of 3.8. For `O=C1CCC(=O)N1O`, the pKa was 6.04. For `O=C1COC(=O)C1[N+](=O)[O-]` (stereo not drawn), the pKa was 1.68. With `Nc1nc2nc[nH]c2c(O)[nH+]1` the pKa was 3.25. `CCCCOc1ccc(O)cc1` showed a pKa of 10.2. Compound `C[C@H]1CC[C@@H](C(=O)O)CC1` has a pKa of 5.04. Work on `O=Cc1ncccc1O` yielded a pKa of 6.95. For `Cc1ccc(C(=O)O)c(O)c1`, the pKa was 3.11. `Fc1ccc(NC=S)cc1` gave a pKa of 11.2. With `Cc1cc(Br)ccc1C(=O)O` the pKa was 3.77. For `S=CNc1ccc(Cl)cc1`, the pKa was 10.8. Work on `O=[N+]([O-])c1ccc[nH]1` yielded a pKa of 10.6. Work on `Cc1cc(C(F)(F)F)n[nH]1` yielded a pKa of 12.3. For `CC(C)OO`, the pKa was 12.1. For `Oc1cc(Cl)c(Cl)c(Cl)c1`, the pKa was 7.7. `Nc1ccc(S(=O)(=O)Nc2ccn(-c3cccc([N+](=O)[O-])c3)n2)cc1` gave a pKa of 7.03. `O=C([O-])c1cc(O)c(O)c(C(=O)[O-])[o+]1` gave a pKa of 9.82. Work on `CC(C)P(=O)(O)C(C)C` yielded a pKa of 3.56. Compound `CC1CC(=O)N(O)C1(C)C` (stereo not drawn) has a pKa of 8.85. `Nc1nc([S-])c2[nH]cnc2n1` showed a pKa of 11.6. In the case of `Cc1c[n+]([C@@H]2C[C@@H](O)[C@H](CO)O2)c(O)nc1NCCc1ccccc1`, the pKa is reported as 3.83. With `CCOC(=O)C(Cc1ccccc1)C(C)=O` (stereo not drawn) the pKa was 11.8. `CCCC(C)C1C(=O)NC(=S)N=C1[O-]` (stereo not drawn) showed a pKa of 11.4. Compound `CCCCOC(=O)c1ccc[n+](O)c1` has a pKa of 0.03. `Clc1c(Cl)c(Cl)c2[nH]nnc2c1Cl` gave a pKa of 4.52. `O=C(O)/C=C/c1c[nH]c[nH+]1` gave a pKa of 3.5. `Cc1c(-c2ccccc2)nn(-c2ccccc2)c1O` gave a pKa of 7.8. Work on `O=C(O)[C@]1(Cl)[C@@H]2CCC[C@@H]21` yielded a pKa of 2.82. For `CCCCCCCCCCCCCCCCCC(=O)O`, the pKa was 5.01. In the case of `CCCCCCc1c(-c2ccccc2)n[nH]c1O`, the pKa is reported as 8.6. With `O=C(O)[C@@H]1O[C@H](Oc2ccc3[nH+]ccc(O)c3c2)[C@@H](O)[C@H](O)[C@H]1O` the pKa was 3.15. Compound `C[Si](C)(C)CC(=O)O` has a pKa of 5.22. Compound `CC1CCn2nnnc2C(C(=O)O)C1` (stereo not drawn) has a pKa of 3.2. Compound `Cc1ccc(C)c(O)c1` has a pKa of 10.4. With `CC([NH3+])c1nnn[nH]1` (stereo not drawn) the pKa was 2.63. `COc1ccc2[nH]c3c(c2c1)CCN=C3C` showed a pKa of 14.5. With `CC(=O)C(C)C(=O)c1ccccc1` (stereo not drawn) the pKa was 11.1. Compound `O=c1ccc2ccc(O)c(O)c2o1` has a pKa of 6.9. For `O=C(O)C(=O)/C=C/c1ccccc1`, the pKa was 1.97. For `O=c1cccccc1O`, the pKa was 6.87. Work on `CC(O)=C(C#N)C#N` yielded a pKa of 1. `O=C(O)c1ccc[nH+]c1[O-]` gave a pKa of 5.28. For `CC[NH+](CC)Cc1c(O)cccc1Cl`, the pKa was 7.5. Work on `CC1CCC(=O)C1=O` (stereo not drawn) yielded a pKa of 9.6. Compound `C[N+](C)(C)CCCC(=O)O` has a pKa of 4.02. In the case of `CCOC(=O)c1c(C)nc(C)c(C(=O)OCC)c1-c1ccc(NS(=O)(=O)c2ccc(N)cc2)cc1`, the pKa is reported as 9.15. `[NH3+][C@H]1CONC1=O` gave a pKa of 4.54. Work on `O=Cc1cc([N+](=O)[O-])cc(Br)c1O` yielded a pKa of 3.48. With `C[Si](C)(C)c1cccc(C(=O)O)c1` the pKa was 4.24. With `CC(C)C[C@H](N)C(N)=O` the pKa was 7.84. In the case of `O=[N+]([O-])c1[nH]cnc1Cl`, the pKa is reported as 5.9. Work on `O=Cc1ccc(O)cc1Cl` yielded a pKa of 6.6. With `Fc1cccc(NC(=S)c2ccc(Cl)cc2)c1` the pKa was 10.2. In the case of `O=C([O-])CCCC(=O)NOCc1ccccc1`, the pKa is reported as 10.2. Work on `C=C(C)/C=C(/C(=O)O)c1ccc([N+](=O)[O-])cc1` yielded a pKa of 4.4. `COCC1=C(C(=O)O)C2C=CC1C2` (stereo not drawn) showed a pKa of 4.59. `Cc1cc(C(C)(C)C)cc(C)c1C(=O)O` gave a pKa of 3.44. In the case of `C(CSCCc1nnn[nH]1)SCCc1nnn[n-]1`, the pKa is reported as 5.64. `O=C([O-])C(CO)[NH2+]Cc1cc([N+](=O)[O-])ccc1O` (stereo not drawn) showed a pKa of 6.15. For `NC(=O)/C(=N/O)c1ccccc1`, the pKa was 9.55. With `CCCCB(O)O` the pKa was 10.7. For `Cc1cc2ccccc2c(C(=O)O)c1C`, the pKa was 3.33. Work on `O=[N+]([O-])c1cccc(/C=C/C=N/O)c1` yielded a pKa of 10.2. `CC(C#N)(Cc1ccccc1)C(=O)O` (stereo not drawn) showed a pKa of 2.29. `O=S(=O)([O-])c1cc(O)cc2[nH]ncc12` showed a pKa of 8.85.

Same assay, conditions: basic group
Work on `O=Cc1cccnc1` yielded a pKa of 3.73. In the case of `NNC(=O)c1ccccc1`, the pKa is reported as 3.02. In the case of `[O-]c1ccccc1C1=NCCN1`, the pKa is reported as 12.6. Work on `Cn1c(-c2ccccc2[O-])nc2ccccc21` yielded a pKa of 8.92. Compound `OCC1=CCN2CC[C@@H](O)[C@@H]12` has a pKa of 8.92. Compound `CNc1ncnc2[nH]ncc12` has a pKa of 4.53. With `CN(C)c1ccc(C#N)cc1` the pKa was 1.78. Compound `Cc1cc2cccc(C)c2nc1C` has a pKa of 4.41. Work on `Cc1cccc(C)c1N` yielded a pKa of 3.84. Compound `CCCCCNN` has a pKa of 6.25. In the case of `Nc1ccc(-c2ccc(N)cc2)cc1`, the pKa is reported as 4.96.
